Laboratory results as given in patent publication US9670227B2, “Thienopyrimidine derivatives, a process for their preparation and pharmaceutical compositions containing them” (LES LABORATOIRES SERVIER, priority 2013, dated 2017).
Read-outs that look alike come from different tables or passages of the source.

Legend:
[1] = target: Mcl-1 protein (UniProtKB primary accession number: Q07820) (Homo sapiens, UniProt Q07820); test: Inhibition of Mcl-1 by fluorescence polarisation, Method 1; format: binding; settings: read-out: IC50 (M) Mcl-1 FP
Chain of Mcl-1 protein (Q07820 whole entry): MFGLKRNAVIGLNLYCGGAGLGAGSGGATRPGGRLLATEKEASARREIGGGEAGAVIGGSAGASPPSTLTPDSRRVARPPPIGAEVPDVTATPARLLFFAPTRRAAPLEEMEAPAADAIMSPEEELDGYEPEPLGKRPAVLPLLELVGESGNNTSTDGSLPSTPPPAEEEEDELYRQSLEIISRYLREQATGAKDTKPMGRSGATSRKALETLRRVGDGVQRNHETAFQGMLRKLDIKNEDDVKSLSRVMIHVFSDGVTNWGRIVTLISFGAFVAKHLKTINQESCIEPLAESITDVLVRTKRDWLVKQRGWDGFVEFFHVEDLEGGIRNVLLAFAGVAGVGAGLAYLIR
Method in brief: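 Fluorescence polarisation competition with an 11-point compound dilution series (final DMSO 5%). Mcl-1 protein at 5 nM and fluorescein-labelled ligand at 1 nM (final) in 10 mM HEPES, 150 mM NaCl, 0.05% Tween 20, pH 7.4.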

[2] = test system: H929 multiple myeloma tumour line; test: In vitro cytotoxicity, Microculture Tetrazolium Assay; format: cell-based; settings: Homo sapiens, NCI-H929, 48 h, H929 cells, 48 hours exposure, MTT; read-out: IC50 (μM) MTT H929
Protocol: The cytotoxicity studies were carried out on the H929 multiple myeloma tumour line.
The cells are distributed onto microplates and exposed to the test compounds for 48 hours.

[3] = fluorescence polarisation, Method 1, or Method 2
[4] = fluorescence polarisation test, Method 2 values are underlined in the patent (underlining not visible here)

SMILES	IC50 [1, 3] [M]	IC50 [1, 4] [M]	IC50 [2] [µM]
CCc1sc2ncnc(OC(Cc3ccccc3)C(=O)O)c2c1-c1ccc(OCCCN2CCN(C)CC2)c(Cl)c1C [Example 402, (2R)-2-[((5Sa)-5-{3-chloro-2-methyl-4-[3-(4-methylpiperazin-1-yl)propoxy]phenyl}-6-ethylthieno[2,3-d]pyrimidin-4-yl)oxy]-3-phenylpropanoic acid]	6.6e-08		10.4
COc1ccc(-c2nccc(COc3ccccc3CC(Oc3ncnc4sc(-c5ccc(F)cc5)c(-c5ccc(OCCN6CCN(C)CC6)c(Cl)c5C)c34)C(=O)O)n2)c(OC)c1 [Example 733, (2R)-2-{[(5Sa)-5-{3-chloro-2-methyl-4-[2-(4-methylpiperazin-1-yl)ethoxy]phenyl}-6-(4-fluorophenyl)thieno[2,3-d]pyrimidin-4-yl]oxy}-3-(2-{[2-(2,4-dimethoxyphenyl)pyrimidin-4-yl]methoxy}phenyl)propanoic acid]	9.48e-10		0.005
COc1ccccc1-c1nccc(COc2ccccc2CC(Oc2ncnc3sc(C#CCOc4ccccc4)c(-c4ccc(OCCN5CCN(C)CC5)c(Cl)c4C)c23)C(=O)O)n1 [Example 782, (2R)-2-{[(5Sa)-5-{3-chloro-2-methyl-4-[2-(4-methylpiperazin-1-yl)ethoxy]phenyl}-6-(3-phenoxyprop-1-yn-1-yl)thieno[2,3-d]pyrimidin-4-yl]oxy}-3-(2-{[2-(2-methoxyphenyl)pyrimidin-4-yl]methoxy}phenyl)propanoic acid]	1.68e-09		0.057
CCN1CCN(CCOc2ccc(-c3c(-c4ccc(F)cc4)sc4ncnc(OC(Cc5ccccc5OCc5ccnc(-c6ccccc6F)n5)C(=O)O)c34)c(C)c2Cl)CC1 [Example 745, (2R)-2-{[(5Sa)-5-{3-chloro-4-[2-(4-ethylpiperazin-1-yl)ethoxy]-2-methylphenyl}-6-(4-fluorophenyl)thieno[2,3-d]pyrimidin-4-yl]oxy}-3-(2-{[2-(2-fluorophenyl)pyrimidin-4-yl]methoxy}phenyl)propanoic acid]	9.48e-10		0.003
COc1ccccc1-c1nccc(COc2ccccc2CC(Oc2ncnc3sc(C#CCCCc4ccccc4)c(-c4ccc(OCCN5CCN(C)CC5)c(Cl)c4C)c23)C(=O)O)n1 [Example 783, (2R)-2-{[(5Sa)-5-{3-chloro-2-methyl-4-[2-(4-methylpiperazin-1-yl)ethoxy]phenyl}-6-(5-phenylpent-1-yn-1-yl)thieno[2,3-d]pyrimidin-4-yl]oxy}-3-(2-{[2-(2-methoxyphenyl)pyrimidin-4-yl]methoxy}phenyl)propanoic acid]	1.06e-09		0.037
COc1ccccc1CC(Oc1ncnc2sc(-c3ccco3)c(-c3ccc(OCCC4CCCN4C)c(Cl)c3C)c12)C(=O)O [Example 316, (2R)-2-{[(5Sa)-5-{3-chloro-2-methyl-4-[2-(1-methylpyrrolidin-2-yl)ethoxy]phenyl}-6-(furan-2-yl)thieno[2,3-d]pyrimidin-4-yl]oxy}-3-(2-methoxyphenyl)propanoic acid]		7.7e-09	1.46
Cc1c(-c2c(-c3ccc(F)o3)sc3ncnc(OC(Cc4ccccc4OCC(F)(F)F)C(=O)O)c23)ccc(OCCN(C)C)c1Cl [Example 200, (2R)-2-{[(5Sa)-5-{3-chloro-4-[2-(dimethylamino)ethoxy]-2-methylphenyl}-6-(5-fluorofuran-2-yl)thieno[2,3-d]pyrimidin-4-yl]oxy}-3-[2-(2,2,2-trifluoroethoxy)phenyl]propanoic acid]		6.1e-09	0.106
COc1ccccc1CC(Oc1ncnc2sc(-c3ccco3)c(-c3ccc(OCCC4CCN(C)CC4)c(Cl)c3C)c12)C(=O)O [Example 317, (2R)-2-{[(5Sa)-5-{3-chloro-2-methyl-4-[2-(1-methylpiperidin-4-yl)ethoxy]phenyl}-6-(furan-2-yl)thieno[2,3-d]pyrimidin-4-yl]oxy}-3-(2-methoxyphenyl)propanoic acid]		1.8e-08	0.852

More lines, main results first:

IC50 [1, 3] [M]	IC50 [1, 4] [M]	SMILES	IC50 [2] [µM]
1.3e-07		COc1ccccc1CC(Oc1ncnc2sc(-c3cccc(C(F)(F)F)c3)c(-c3ccc(OCCN4CCN(C)CC4)c(Cl)c3C)c12)C(=O)O [Example 549, (2R)-2-[((5Sa)-5-{3-chloro-2-methyl-4-[2-(4-methylpiperazin-1-yl)ethoxy]phenyl}-6-[3-(trifluoromethyl)phenyl]thieno[2,3-d]pyrimidin-4-yl)oxy]-3-(2-methoxyphenyl)propanoic acid]	1.5
	1.4e-08	Cc1c(-c2c(-c3ccc(F)cc3)sc3ncnc(OC(Cc4ccccc4OCc4cncnc4)C(=O)O)c23)ccc(OCCN2CCN(C)CC2)c1Cl [Example 93, (2R)-2-{[(5Sa)-5-{3-chloro-2-methyl-4-[2-(4-methylpiperazin-1-yl)ethoxy]phenyl}-6-(4-fluorophenyl)thieno[2,3-d]pyrimidin-4-yl]oxy}-3-[2-(pyrimidin-5-ylmethoxy)phenyl]propanoic acid]	0.087
	5.5e-09	Cc1c(-c2c(-c3ccco3)sc3ncnc(OC(Cc4ccccc4OCc4ccccn4)C(=O)O)c23)ccc(OCCN2CCN(C)CC2)c1Cl [Example 241, (2R)-2-{[(5Sa)-5-{3-chloro-2-methyl-4-[2-(4-methylpiperazin-1-yl)ethoxy]phenyl}-6-(furan-2-yl)thieno[2,3-d]pyrimidin-4-yl]oxy}-3-[2-(pyridin-2-ylmethoxy)phenyl]propanoic acid]	0.074
	5e-09	Cc1c(-c2c(-c3ccco3)sc3ncnc(OC(Cc4ccccc4OCc4ccnc(OCc5ccccc5)n4)C(=O)O)c23)ccc(OCCN2CCN(C)CC2)c1Cl [Example 257, (2R)-3-(2-{[2-(benzyloxy)pyrimidin-4-yl]methoxy}phenyl)-2-{[(5Sa)-5-{3-chloro-2-methyl-4-[2-(4-methylpiperazin-1-yl)ethoxy]phenyl}-6-(furan-2-yl)thieno[2,3-d]pyrimidin-4-yl]oxy}propanoic acid]	0.019
	5.6e-09	Cc1c(-c2c(-c3ccc(F)cc3)sc3ncnc(OC(Cc4ccccc4OCc4ccnc(C(F)(F)F)n4)C(=O)O)c23)ccc(OCCN2CCN(C)CC2)c1Cl [Example 25, (2R)-2-{[(5Sa)-5-{3-chloro-2-methyl-4-[2-(4-methylpiperazin-1-yl)ethoxy]phenyl}-6-(4-fluorophenyl)thieno[2,3-d]pyrimidin-4-yl]oxy}-3-(2-{[2-(trifluoromethyl)pyrimidin-4-yl]methoxy}phenyl)propanoic acid]	0.074
3.5e-09		CCCCn1nccc1COc1ccccc1CC(Oc1ncnc2sc(-c3ccn(C)n3)c(-c3ccc(OCCN4CCN(C)CC4)c(Cl)c3C)c12)C(=O)O [Example 610, (2R)-3-{2-[(1-butyl-1H-pyrazol-5-yl)methoxy]phenyl}-2-{[(5Sa)-5-{3-chloro-2-methyl-4-[2-(4-methylpiperazin-1-yl)ethoxy]phenyl}-6-(1-methyl-1H-pyrazol-3-yl)thieno[2,3-d]pyrimidin-4-yl]oxy}propanoic acid]	0.091
6.2e-09		CCc1sc2ncnc(OC(Cc3ccccc3OCc3ccnc(OC)n3)C(=O)O)c2c1-c1ccc(OCCN2CCN(C)CC2)c(Cl)c1C [Example 455, (2R)-2-[((5Sa)-5-{3-chloro-2-methyl-4-[2-(4-methylpiperazin-1-yl)ethoxy]phenyl}-6-ethylthieno[2,3-d]pyrimidin-4-yl)oxy]-3-{2-[(2-methoxypyrimidin-4-yl)methoxy]phenyl}propanoic acid]	0.339
9.48e-10		COc1cnccc1-c1nccc(COc2ccccc2CC(Oc2ncnc3sc(-c4ccc(F)cc4)c(-c4ccc(OCCN5CCN(C)CC5)c(Cl)c4C)c23)C(=O)O)n1 [Example 730, (2R)-2-{[(5Sa)-5-{3-chloro-2-methyl-4-[2-(4-methylpiperazin-1-yl)ethoxy]phenyl}-6-(4-fluorophenyl)thieno[2,3-d]pyrimidin-4-yl]oxy}-3-(2-{[2-(3-methoxypyridin-4-yl)pyrimidin-4-yl]methoxy}phenyl)propanoic acid]	0.005
4.3e-09		COc1nccc(COc2ccccc2CC(Oc2ncnc3sc(-c4ccco4)c(-c4ccc(OCCN5CCN(C(C)C)CC5)c(Cl)c4C)c23)C(=O)O)n1 [Example 672, (2R)-2-{[(5Sa)-5-(3-chloro-2-methyl-4-{2-[4-(propan-2-yl)piperazin-1-yl]ethoxy}phenyl)-6-(furan-2-yl)thieno[2,3-d]pyrimidin-4-yl]oxy}-3-{2-[(2-methoxypyrimidin-4-yl)methoxy]phenyl}propanoic acid]	0.019
3.5e-09		CCCCn1nccc1COc1ccccc1CC(Oc1ncnc2sc(-c3cccnc3)c(-c3ccc(OCCN4CCN(C)CC4)c(Cl)c3C)c12)C(=O)O [Example 609, (2R)-3-{2-[(1-butyl-1H-pyrazol-5-yl)methoxy]phenyl}-2-{[(5Sa)-5-{3-chloro-2-methyl-4-[2-(4-methylpiperazin-1-yl)ethoxy]phenyl}-6-(pyridin-3-yl)thieno[2,3-d]pyrimidin-4-yl]oxy}propanoic acid]	0.063
2.4e-08		COc1cccc(-c2sc3ncnc(OC(Cc4ccccc4OC)C(=O)O)c3c2-c2ccc(OCCN3CCN(C)CC3)c(Cl)c2C)c1 [Example 554, (2R)-2-{[(5Sa)-5-{3-chloro-2-methyl-4-[2-(4-methylpiperazin-1-yl)ethoxy]phenyl}-6-(3-methoxyphenyl)thieno[2,3-d]pyrimidin-4-yl]oxy}-3-(2-methoxyphenyl)propanoic acid]	0.177
